Data from PMC6874179, “Development of Macrocycle Kinase Inhibitors for ALK2 Using Fibrodysplasia Ossificans Progressiva‐Derived Endothelial Cells” (JBMR Plus, 2019).
Values after ≈ are worked out from the molar mass of the structure shown. Where two headings read alike, the source gives them in different places.

Legend:
FOP ECFCs = assay: Smad1/5 activation and ID-1/ID-3 expression in FOP ECFCs; format: cell-based, human; details: compound 0.5μM; for Effect on activin A-induced activation of Smad1/5 and gene targets ID-1 and ID-3: activin A 50 ng/mL; for Effect on BMP-6-induced downstream signaling: BMP-6 50 ng/mL
Procedure: Total RNA extraction was performed using NucleoSpin RNA II (Machery Nagel, Düren, Germany). There were 500 ng of RNA retro‐transcribed using RevertAid First Strand cDNA Synthesis Kits (Fisher Scientific, Landsmeer, The Netherlands), and real‐time reverse transcription‐PCR experiments were performed using SYBR Green (Bio‐Rad, Veenendaal, The Netherlands) and a Bio‐Rad CFX Connect device. A list of the oligonucleotides used can be found as online supplemental data.
Cells were incubated for 21 days in chondrogenic medium containing BMP‐6 or activin A (50 ng/mL) and LDN‐193189, OD36, or OD52 at 0.5μM, prior to Alcian Blue staining. (B) Quantification of Fig. 6 A by absorbance, after solubilization with guanidine hydrochloride. (C) Chondrogenic gene expression analysis of collagen 2 (Col2), Sox9, Matrix metalloproteinase 13 (Mmp13), and collagen X (Col X) in ATDC5 cells corresponding to (A). (D) Western blot of a representative clone of FOP endothelial colony‐forming cells (ECFCs) incubated with LDN‐193189, OD36, or OD52 (0.5μM) prior to stimulation with BMP‐6 (50 ng/mL) or activin A (50 ng/mL). (E) Expression of the BMP target genes ID1 and ID3 by qPCR in FOP ECFCs stimulated with BMP‐6 (50 ng/mL) or activin A (50 ng/mL) in the presence of the indicated compounds at 0.5μM. (F) Alizarin Red solution staining on a representative clone of FOP ECFCs incubated under osteogenic conditions with BMP‐6 (50 ng/mL) or activin A (50 ng/mL) and the indicated compounds. (G) Quantification of Fig. 6 F by absorbance, after solubilization with cetylpyridinium. (H) Osteogenic genes Collagen 1 alpha 1 (Col1a1), Runx2, and osterix (Osx) expression in a representative clone of FOP ECFCs incubated under osteogenic conditions with BMP‐6 (50 ng/mL) or activin A (50 ng/mL) and LDN‐193189, OD36, or OD52 (0.5 μM). *p < 0.05, **p < 0.01, ***p < 0.001.
Cells were seeded into 6-well plates and cultured till they reached confluence. Next, cells were stimulated as indicated and then washed with cold PBS. Lysates were prepared using 2x Sample buffer (10% SDS, 62.5 mM Tris-HCl pH 6.8, 0.002 % Bromophenol Blue, 0.7135 M (5%) β-mercaptoethanol, 10 % glycerol) and boiled for 5 minutes before loading. Electrophoresis was performed in 10% SDS/polyacrylamide gels. Separated proteins were transferred to nitrocellulose membranes (0.5 A at 100 V; in ice) for 1 hour. Blots were blocked in Tris-Buffered Saline solution containing 0.1% Tween 20 and 5% non-fat dry milk overnight at 4 °C, and immune-detection of specific proteins was carried out with primary antibodies (see above) followed by horseradish peroxidase-conjugated anti-mouse or anti-rabbit (GE Healthcare, Eindhoven, The Netherlands) secondary antibodies using an ECL system (Fisher Scientific, Landsmeer, The Netherlands).

[1] = Microsomal incubations, mLM; format: in vitro ADME; details: mouse, liver microsomes, pH 7.4; microsomes 0.5 mg/ml, 0.5 μM compound; read-out: Metabolic clearance mLM
[2] = Microsomal incubations, hLM; format: in vitro ADME; details: human, pooled liver microsomes, pH 7.4; microsomes 0.5 mg/ml, 0.5 μM compound; read-out: Metabolic clearance hLM
Procedure: Pooled human liver microsomes were purchased from Xenotech LLC (Kansas City, KS). Microsomes (0.5 mg/ml) were preincubated with 0.5 μM test compound for 7 min at 37°C in 50 mM phosphate buffer, pH 7.4. The reactions were initiated by adding prewarmed cofactor (0.44 mM NADPH). Aliquots of samples were taken at 0, 5, 10, 20 and 45 min and the reactions terminated by addition of cold acetonitrile containing an internal standard. Samples were centrifuged at 3000g for 10 min at 4°C and then supernatants were analyzed by LC/MS/MS for the amount of parent compound remaining.

TBR2 = molecular target: T1, TBR2 (Homo sapiens, UniProt P37173); assay: DiscoverX Kd determination; format: binding
T1 construct: T7 phage fusion (or DNA tag for qPCR if made in HEK-293); purchased DiscoverX; host or cells: E. coli (T7 phage) or HEK-293
T1 sequence (P37173 23-567): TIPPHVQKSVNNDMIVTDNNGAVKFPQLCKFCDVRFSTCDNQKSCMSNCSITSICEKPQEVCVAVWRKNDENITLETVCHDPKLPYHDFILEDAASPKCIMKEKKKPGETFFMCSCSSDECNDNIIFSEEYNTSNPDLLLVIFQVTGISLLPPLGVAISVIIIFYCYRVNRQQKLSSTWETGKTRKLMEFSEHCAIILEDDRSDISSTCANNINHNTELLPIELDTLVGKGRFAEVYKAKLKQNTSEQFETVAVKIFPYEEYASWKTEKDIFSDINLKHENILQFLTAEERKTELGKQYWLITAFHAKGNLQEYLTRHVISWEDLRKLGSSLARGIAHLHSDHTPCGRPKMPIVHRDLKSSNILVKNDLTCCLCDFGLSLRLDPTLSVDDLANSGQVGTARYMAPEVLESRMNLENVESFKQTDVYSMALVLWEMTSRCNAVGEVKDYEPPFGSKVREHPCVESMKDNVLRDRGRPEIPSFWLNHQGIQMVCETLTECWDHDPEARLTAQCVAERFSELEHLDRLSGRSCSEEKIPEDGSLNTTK
Procedure: DiscoverX Kd determination: For most assays, kinase-tagged T7 phage strains were prepared in an E. coli host derived from the BL21 strain. E. coli were grown to log-phase and infected with T7 phage and incubated with shaking at 32°C until lysis. The lysates were centrifuged and filtered to remove cell debris. The remaining kinases were produced in HEK-293 cells and subsequently tagged with DNA for qPCR detection. […] The liganded beads were blocked with excess biotin and washed with blocking buffer (SeaBlock (Pierce), 1% BSA, 0.05% Tween 20, 1 mM DTT) to remove unbound ligand and to reduce non-specific binding. […] Kds were determined using an 11-point 3-fold compound dilution series with three DMSO control points. […] The compounds were then diluted directly into the assays such that the final concentration of DMSO was 0.9%. All reactions performed in polypropylene 384-well plate. Each was a final volume of 0.02 ml. […] The kinase concentration in the eluates was measured by qPCR. An 11-point 3-fold serial dilution of each test compound was prepared in 100% DMSO at 100x final test concentration and subsequently diluted to 1x in the assay (final DMSO concentration = 1%). Most Kds were determined using a compound top concentration = 30.000 nM. […] Binding constants (Kds) were calculated with a standard dose-response curve using the Hill equation: Response = Background + Signal – Background 1 + (KdHill Slope / DoseHill Slope). The Hill Slope was set to -1. Curves were fitted using a non-linear least square fit with the Levenberg-Marquardt algorithm.

Solubility determination = format: physicochemical; details: kinetic from dmso stock, 2-hour equilibrium, room temperature
Procedure: Test compound from 5 mM DMSO stock solution were diluted to 250 µM either in 50 mM PBS pH 7.4 or FaSSIF pH 6.5 in triplicate. DMSO final concentration was 5%. After a 2-hour equilibrium at room temperature and under shaking, samples were centrifuged at 3000g for 10 min at room temperature. A calibration curve was prepared in LC mobile phase from the 5 mM DMSO stock solution. Samples and calibration curve were analyzed by LC with UV detection.

[3] = PBS buffer, aqueous buffer, 50 mM PBS pH 7.4, 5% DMSO, read-out: Solubility in µM PBS
[4] = FaSSIF pH 6.5, 5% DMSO, read-out: Solubility in µM FaSSIF

Structure (SMILES)	Effect on activin A-induced activation of Smad1/5 and gene targets ID-1 and ID-3 (FOP ECFCs)	microsomal CLint at 0.5 μM [1]	microsomal CLint at 0.5 μM [2]	Kd (TBR2)	solubility at 2 h (Solubility determination; [3])	solubility at 2 h (Solubility determination; [4])	Effect on BMP-6-induced downstream signaling (FOP ECFCs)	Kd (TBR2; read-out: Kd in nM TBR2)
c1ccc2c(-c3cnn4cc(-c5ccc(N6CCNCC6)cc5)cnc34)ccnc2c1 [LDN-193189, reference compound]	inhibited	95 µL/min/mg	61 µL/min/mg	26 nM	5 µM (≈ 2.03 µg/mL)	49 µM (≈ 19.9 µg/mL)		
Clc1cc2cc(c1)-c1cnn3ccc(nc13)NCCOCCO2 [OD36]	completely prevented	207 µL/min/mg	59 µL/min/mg		2 µM (≈ 0.662 µg/mL)	212 µM (≈ 70.1 µg/mL)	less effective	680 nM
Cc1cc2cc(c1)-c1cnn3ccc(nc13)NCCNC(=O)CCN(C)C2 [OD52]	completely prevented	84 µL/min/mg	72 µL/min/mg		140 µM (≈ 51 µg/mL)	240 µM (≈ 87.5 µg/mL)	less effective	2500 nM
